Assay results published in paper PMC9607578, “Chemopreventive Effect on Human Colon Adenocarcinoma Cells of Styrylquinolines: Synthesis, Cytotoxicity, Proapoptotic Effect and Molecular Docking Analysis” (Molecules, 2022).
Read-outs that look alike come from different tables or passages of the source.

Legend:
Assay in all cases: Cytotoxic activity, sulforhodamine B (SRB) staining
[1] = test system: SW480 cells; assay type: cell-based, human; details: for IC50: Homo sapiens, read-out: SW480 IC50
Experimental: (§1) For the biological assays, the human colon adenocarcinoma cell line SW480 and its metastatic derivative SW620 were used. Additionally, the nonmalignant cell line HaCaT was used to find the selectivity index of the compounds. All cell lines were obtained by the Colombian Plant Chemistry Group of the Faculty of Exact and Natural Sciences of the University of Antioquia (Medellín, Colombia) from the European Collection of Authenticated Cell Cultures (ECACC, Salisbury, UK). Cells were cultured in a DMEM medium with 4500 mg/L of glucose and L-glutamine (Sigma-Aldrich, Burlington, MA, USA), supplemented with 10% heat-inactivated (56 °C) horse serum (Gibco, Waltham, MA, USA), 1% penicillin/streptomycin (Sigma-Aldrich, Burlington, MA, USA), and 1% non-essential amino acids (Sigma-Aldrich, Burlington, MA, USA). For all experiments, horse serum was reduced to 3%, and the medium was supplemented with […] of transferrin, 5 ng/mL of selenium, and […] of insulin (ITS; Sigma-Aldrich, Burlington, MA, USA). All cell lines were incubated at 37 °C in a 5% CO2 atmosphere. Additionally, cell cultures were constantly monitored with PCR (Sigma-Aldrich, Burlington, MA, USA) for Mycoplasma spp. to control contamination with this agent.
(§2) To evaluate the effect of styrylquinolines on the viability of the SW480, SW620, and HaCaT cell lines, sulforhodamine B (SRB) staining was used. SRB is a colorimetric assay that indirectly estimates the number of living cells based on the ability of SRB to bind to protein components of adherent cells. Briefly, the malignant cell lines were seeded at a final density of 2.0 × 10^4 cells/well, and the nonmalignant cell line was seeded at a final density of 1.5 × 10^4 cells/well in 96-well tissue culture plates. All cell lines were incubated at 37 °C in a 5% CO2 atmosphere for 24 h to enable cell adherence, and they were then treated for 24 and 48 h with increasing concentrations (0.01–160 µM) of the styrylquinolines or their respective precursors (8-hydroxyquinoline and resveratrol), as well as 1% DMSO (negative control) and 5-FU (standard drug). After treatment, cells were fixed with trichloroacetic acid (50% v/v; PanReac AppliChem, Barcelona, Spain) for a period of one hour at 4 °C. After this, the cells were incubated for 30 min at room temperature with 0.4% (w/v) SRB (Sigma-Aldrich, Burlington, MA, USA). To remove unbound SRB, the cells were washed with 1% acetic acid, and the plates were allowed to dry at room temperature. Protein-bound SRB was solubilized with 10 mM Tris-base (Amresco, Cleveland, OH, USA) for 30 min at room temperature under constant agitation, and absorbance was measured at 490 nm in a microplate reader (Bio-Rad iMark^TM, Hercules, CA, USA). Finally, the concentration of the compound that inhibits 50% of cell growth (IC50) and the selectivity index (SI) were determined.

[2] = test system: SW620 cells; assay type: cell-based, human; details: for IC50: Homo sapiens, read-out: SW620 IC50
Experimental: as §1, §2

[3] = test system: HaCaT cells; assay type: cell-based; details: Homo sapiens, read-out: HaCaT IC50
Experimental: as §1, §2

[4] = SW480, 24 h treatment, mean ± SE
[5] = SW480, 48 h treatment, mean ± SE
[6] = SW-620, 24 h treatment, mean ± SE
[7] = SW-620, 48 h treatment, mean ± SE

| SMILES | SI (IC50 HaCaT / IC50 SW480) ([1]; 24 h treatment) | SI (IC50 HaCaT / IC50 SW480) ([1]; 48 h treatment) | IC50 [1, 4] [µM] | IC50 [1, 5] [µM] | SI (IC50 HaCaT / IC50 SW620) ([2]; 24 h treatment) | SI (IC50 HaCaT / IC50 SW620) ([2]; 48 h treatment) | IC50 [2, 6] [µM] | IC50 [2, 7] [µM] | IC50 ([3]; 24 h treatment, mean ± SE) [µM] | IC50 ([3]; 48 h treatment, mean ± SE) [µM] | IC50 ([1]; SW480, 24 h) [µM] | IC50 ([1]; SW480, 48 h) [µM] | IC50 ([2]; SW-620, 24 h) [µM] | IC50 ([2]; SW-620, 48 h) [µM] | IC50 ([3]; 24 h) [µM] | IC50 ([3]; 48 h) [µM] |
| --- | --- | --- | --- | --- | --- | --- | --- | --- | --- | --- | --- | --- | --- | --- | --- | --- |
| Oc1cccc(/C=C/c2ccc3cccc(O)c3n2)c1O [Compound 3b] | 0.8 | 0.9 | 72.6 ± 11 | 39 ± 3.6 | 1.2 | 3.4 | 49.1 ± 4.6 | 9.7 ± 2 | 57.2 ± 6.3 | 33.5 ± 4.9 |  |  |  |  |  |  |
| Oc1ccc(/C=C/c2ccc3cccc(O)c3n2)c(O)c1 [Compound 3c] | 3.0 | 1.0 | 37.1 ± 3.8 | 38.4 ± 3.8 | 1.8 | 1.9 | 62 ± 4 | 20.7 ± 3.1 | 110 ± 12.7 | 38.4 ± 6.2 |  |  |  |  |  |  |
| Oc1ccc(CCc2ccc3cccc(O)c3n2)cc1 [Compound 4a, 2-(4-hydroxyphenethyl)quinolin-8-ol] | 0.6 | 1.1 | 117 ± 5.3 | 63.2 ± 7.1 | 1.3 | 2.4 | 51 ± 5.6 | 28.9 ± 1.2 | 65.1 ± 8.4 | 69.7 ± 3 |  |  |  |  |  |  |
| COc1cc(CCc2ccc3cccc(O)c3n2)ccc1O [Compound 4b, 2-(4-hydroxy-3-methoxyphenethyl)quinolin-8-ol] | 1.2 | 1.2 | 93.4 ± 16.6 | 43.2 ± 2 | 1.9 | 2.9 | 58.8 ± 5.5 | 18.6 ± 2 | 109 ± 8.1 | 53.6 ± 2.2 |  |  |  |  |  |  |
| O=c1[nH]cc(F)c(=O)[nH]1 [Compound 5-FU, 5-Fluorouracil, reference compound] | 2.0 |  | > 2000 | 748 ± 158 |  | 0.1 | > 2000 | 296 ± 39.7 | > 2000 | 38.8 ± 7.2 |  |  |  |  |  |  |
| Oc1cccc2cccnc12 [Compound 8-HQ, 8-hydroxyquinoline, reference compound] | 1.0 | 1.6 |  |  | 1.6 | 1.7 |  |  |  |  | 89.6 ± 11.8 | 38.8 ± 3.2 | 55.3 ± 3.6 | 36.3 ± 4.8 | 87.1 ± 9.4 | 61.6 ± 4.8 |
| Oc1ccc(/C=C/c2cc(O)cc(O)c2)cc1 [Resveratrol, resveratrol, reference compound] | 0.8 | 0.7 | 217 ± 12.8 | 136 ± 9.1 | 1.1 | 0.8 | 169 ± 3.9 | 125 ± 4.6 | 180 ± 7.2 | 98.2 ± 7 |  |  |  |  |  |  |
